Like-named read-outs stand apart in the source and are kept apart here.
How the values were obtained:
PPARδ = molecular target: T1, PPARδ (Homo sapiens, UniProt Q03181); test: GAL4 hybrid reporter gene method, PPARδ agonistic activity; type: cell-based
T1 construct: expressed in transfected cells; host or cells: COS-7
T1 sequence (Q03181 211-439 limits assumed): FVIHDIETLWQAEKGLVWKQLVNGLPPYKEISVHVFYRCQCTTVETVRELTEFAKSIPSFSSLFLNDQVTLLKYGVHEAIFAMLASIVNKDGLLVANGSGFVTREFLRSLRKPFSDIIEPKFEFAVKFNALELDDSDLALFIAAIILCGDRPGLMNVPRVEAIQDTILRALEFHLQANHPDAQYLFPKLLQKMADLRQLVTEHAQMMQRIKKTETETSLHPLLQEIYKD
Procedure: (§1) Cos-7 cells (African green monkey kidney fibroblasts, commonly used tool cells) were cultured in a 10-cm cell culture dish with a DMEM complete medium containing 10% fetal bovine serum. When growing at a density of about 70%, the cells were ready for transfection. […] The working solution described above was then combined with 8 mL of the DMEM complete medium, and the mixture was added to the cell culture dish for cell transfection. After 4 h of transfection, the cells were digested, resuspended, and seeded into a 96-well plate at 25,000 cells/well. […] 10 μL of a reporter gene detection solution (purchased from Shanghai Beyotime Biological Tech. Co., Ltd.) was added. After the resulting solution was mixed and reacted, biological fluorescence was detected by using a multifunctional microplate reader, and corresponding half maximal effective concentration (EC50) values were calculated according to the detection values. […] Transfection working solutions for different nuclear receptors were prepared and added into COS-7 cells. The preparation method for the transfection working solution was as follows: the constructed pBIND-Gal4-PPARα (LBD) (or pBIND-Gal4-PPARδ (LBD) plasmid or pBIND-Gal4-PPARγ (LBD) plasmid or pBIND-Gal4-RARα (LBD) plasmid or pBIND-Gal4-RARγ (LBD) plasmid or pBIND-Gal4-RARβ (LBD) plasmid or pBIND-Gal4-RORα (LBD) plasmid or pBIND-Gal4-RORγ (LBD) plasmid or pBIND-Gal4-RORβ (LBD) plasmid or pBIND-Gal4-FXR (LBD) plasmid or pBIND-Gal4-RXRα.

PPARγ = molecular target: T2, PPARγ (Homo sapiens, UniProt P37231); test: GAL4 hybrid reporter gene method, PPARγ agonistic activity; type: cell-based
T2 construct: expressed in transfected cells; host or cells: COS-7
T2 sequence (P37231 238-503 limits assumed): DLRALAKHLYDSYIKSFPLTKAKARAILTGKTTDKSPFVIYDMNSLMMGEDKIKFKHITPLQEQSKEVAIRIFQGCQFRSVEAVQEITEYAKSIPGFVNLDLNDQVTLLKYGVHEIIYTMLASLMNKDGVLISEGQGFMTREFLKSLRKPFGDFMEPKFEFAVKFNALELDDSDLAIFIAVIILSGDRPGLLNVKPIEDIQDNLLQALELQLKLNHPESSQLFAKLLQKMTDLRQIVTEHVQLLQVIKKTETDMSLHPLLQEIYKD
Procedure: as §1

PPARα = molecular target: T3, PPARα (Homo sapiens, UniProt Q07869); test: GAL4 hybrid reporter gene method, PPARα agonistic activity; type: cell-based; details: Cos-7 cells, Gal4-PPARα (LBD); GW7647 10 nM = 100%; 16 h
T3 construct: expressed in transfected cells; host or cells: COS-7
T3 sequence (Q07869 239-466 limits assumed): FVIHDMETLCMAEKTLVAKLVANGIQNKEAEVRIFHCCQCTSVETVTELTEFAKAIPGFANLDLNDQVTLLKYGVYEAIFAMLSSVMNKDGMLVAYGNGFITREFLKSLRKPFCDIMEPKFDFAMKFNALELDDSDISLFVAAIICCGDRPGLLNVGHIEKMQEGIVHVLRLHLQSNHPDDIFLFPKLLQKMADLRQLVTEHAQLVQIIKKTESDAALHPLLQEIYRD
Procedure: as §1

[1] = Metabolic stability in human liver microsomes; type: in vitro ADME; details: human liver microsomes 0.75 mg/mL, NADPH
Procedure: A solution of the compound in acetonitrile at a concentration of 500 μM was prepared and diluted in 0.1 M potassium phosphate solution to obtain a 1.5 μM drug working solution. The drug working solution was co-incubated with a human liver microsome working solution at a final concentration of 0.75 mg/mL and a NADPH solution (at a final concentration of 550 μM), and the incubation was terminated by adding an acetonitrile solution at 0 min, 15 min, 30 min, 45 min, and 60 min, respectively. The remaining amount of the compound remained in the system at each time point was detected by using LC/MS, the absolute value k of the slope was measured by plotting the natural logarithm of the percentage of the remaining amount of the compound over time, and the calculation was performed according to the formula: T1/2 (half-life)=ln2/k=0.693/k.

[2] = NCT02704403; cited from earlier work
[3] = Cos-7 cells, Gal4-PPARδ (LBD), GW501516 10 nM = 100%, 16 h
[4] = Cos-7 cells, Gal4-PPARγ (LBD), Rosiglitazone 1 μM = 100%, 16 h

Structure (SMILES) | EC50 (PPARγ) | EC50 (PPARα) | EC50 (PPARδ) | other results
Cc1cc(CCN2C(=O)CN(c3ccc(C(F)(F)F)cc3)C2=O)cc(C)c1OC(C)(C)C(=O)O [Compound 85, 2-(4-(2-(2,5-Dioxo-3-(4-(trifluoromethyl)phenyl)imidazolidin-1-yl)ethyl)-2,6-dimethylphenoxy)-2-methylpropionic Acid] | 2720 nM | 17.9 nM |  | EC50 (PPARδ; [3]): 4.4 nM
Cc1cc(CCN2CC(=O)N(c3ccc(C(F)(F)F)cc3)C2=O)cc(C)c1OC(C)(C)C(=O)O [Compound 87, 2-(4-(2-(2,4-Dioxo-3-(4-(trifluoromethyl)phenyl)imidazolin-1-yl)ethyl)-2,6-dimethylphenoxy)-2-methylpropionic Acid] | 3400 nM | 353 nM | 352 nM | 
Cc1cc(CCCN2C(=O)CN(c3ccc(C(F)(F)F)cc3)C2=O)cc(C)c1OC(C)(C)C(=O)O [Compound 89, 2-(4-(3-(2,5-Dioxo-3-(4-(trifluoromethyl)phenyl)imidazolidin-1-yl)propyl)-2,6-dimethylphenoxy)-2-methylpropionic Acid] |  | 67 nM |  | EC50 (PPARδ; [3]): 20.3 nM; EC50 (PPARγ; [4]): 628 nM
Cc1cc(CCCN2CC(=O)N(c3ccc(C(F)(F)F)cc3)C2=O)cc(C)c1OC(C)(C)C(=O)O [Compound 91, 2-(4-(3-(2,4-Dioxo-3-(4-(trifluoromethyl)phenyl)imidazolidin-1-yl)propyl)-2,6-dimethylphenoxy)-2-methylpropionic Acid] | 2690 nM | 38 nM | 632 nM | 
CCOc1ccc(N2CC(=O)N(Cc3cc(C)c(OC(C)(C)C(=O)O)c(C)c3)C2=O)cc1 [Compound 95] | 1330 nM | 10.9 nM | 66.9 nM | 
COc1cc(CN2C(=O)CN(c3ccc(C(F)(F)F)cc3)C2=O)ccc1OC(C)(C)C(=O)O [Compound 97] | 2890 nM | 209 nM | 1400 nM | 
Cc1cc(CN2C(=O)CN(c3ccc(C=O)cc3)C2=O)cc(C)c1OC(C)(C)C(=O)O [Compound 99] | > 5000 nM | 402 nM | > 5000 nM | 
Cc1cc(CN2C(=O)CN(c3ccc(C4CC4)cc3)C2=O)cc(C)c1OC(C)(C)C(=O)O [Compound 101] | 313 nM | 1 nM | 10.2 nM | PPARδ EC50 (nM) (PPARδ; [3]): low nanomolar levels; PPARα EC50 (nM) (PPARα): low nanomolar levels
Cc1cc(CN2C(=O)CN(c3cccc(F)c3)C2=O)cc(C)c1OC(C)(C)C(=O)O [Compound 103] | 474 nM | 102 nM | 97.6 nM | 
Cc1cc(CN2C(=O)CN(c3ccc(F)c(Cl)c3)C2=O)cc(C)c1OC(C)(C)C(=O)O [Compound 105] | 165 nM | 21.9 nM | 40.5 nM | 
Cc1cc(CN2C(=O)CN(c3cccc(Cl)c3)C2=O)cc(C)c1OC(C)(C)C(=O)O [Compound 107] | 652 nM | 105 nM | 47.5 nM | 
Cc1cc(CN2C(=O)CN(c3cccc(OC(F)(F)F)c3)C2=O)cc(C)c1OC(C)(C)C(=O)O [Compound 109] | 363 nM | 31.7 nM | 15.1 nM | 
CSc1ccc(C(=O)/C=C/c2cc(C)c(OC(C)(C)C(=O)O)c(C)c2)cc1 [GFT505, Elafibranor, reference compound] |  | 820 nM |  | EC50 (PPARγ; [4]): 1840 nM; CLint scaled [1]: 116 mL/min/kg; half-life [1]: 15 min; interim analysis result of phase III clinical trial against NASH [2]: substantially ineffective
